Data as given in ChEMBL document CHEMBL5465560, “Selectivity Literature for EUbOPEN Chemogenomic Library” (2024).

Columns and labels:
[1] = target: Insulin-like growth factor 1 receptor (Homo sapiens, UniProt P08069); conditions: at 10 µM
[2] = target: T1, cAMP-dependent protein kinase catalytic subunit PRKX (Homo sapiens) (UniProt P51817); test: Selectivity interaction (KinomeScan (DiscoverX)) EUB0000229b PRKX; conditions: at 10 µM
T1 sequence (whole entry): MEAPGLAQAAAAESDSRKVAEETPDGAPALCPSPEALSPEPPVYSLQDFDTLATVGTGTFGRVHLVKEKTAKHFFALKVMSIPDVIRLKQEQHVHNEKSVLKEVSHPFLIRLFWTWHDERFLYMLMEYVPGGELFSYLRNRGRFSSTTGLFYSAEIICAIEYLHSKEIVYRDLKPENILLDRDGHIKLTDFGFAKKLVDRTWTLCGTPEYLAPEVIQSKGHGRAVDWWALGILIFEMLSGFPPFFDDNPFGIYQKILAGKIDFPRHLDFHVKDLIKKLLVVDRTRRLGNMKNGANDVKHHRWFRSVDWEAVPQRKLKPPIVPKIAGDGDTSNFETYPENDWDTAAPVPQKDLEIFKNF

[3] = target: Calcium/calmodulin-dependent protein kinase type II subunit beta (Homo sapiens) (UniProt Q13554); test: Selectivity interaction (KinomeScan (DiscoverX)) EUB0000092b CAMK2B; conditions: at 10 µM
Calcium/calmodulin-dependent protein kinase type II subunit beta (Homo sapiens), sequence (Q13554 whole entry): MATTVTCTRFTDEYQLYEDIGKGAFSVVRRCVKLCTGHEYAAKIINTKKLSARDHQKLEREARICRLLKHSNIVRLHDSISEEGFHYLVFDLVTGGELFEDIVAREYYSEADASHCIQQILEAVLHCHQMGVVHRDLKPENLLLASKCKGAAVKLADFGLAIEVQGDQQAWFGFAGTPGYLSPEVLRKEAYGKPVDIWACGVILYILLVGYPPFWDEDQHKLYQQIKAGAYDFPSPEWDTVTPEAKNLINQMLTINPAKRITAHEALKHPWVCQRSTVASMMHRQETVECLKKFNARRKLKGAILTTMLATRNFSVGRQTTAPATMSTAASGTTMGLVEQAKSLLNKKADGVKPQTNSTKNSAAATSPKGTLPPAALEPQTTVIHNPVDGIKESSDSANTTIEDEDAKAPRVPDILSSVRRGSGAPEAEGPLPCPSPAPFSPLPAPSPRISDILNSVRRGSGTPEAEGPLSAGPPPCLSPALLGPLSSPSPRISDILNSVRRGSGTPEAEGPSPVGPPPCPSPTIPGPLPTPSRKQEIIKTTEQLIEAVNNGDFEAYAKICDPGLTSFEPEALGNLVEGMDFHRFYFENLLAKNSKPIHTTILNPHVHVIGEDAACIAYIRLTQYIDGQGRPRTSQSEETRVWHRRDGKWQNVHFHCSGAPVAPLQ

[4] = target: Dual specificity tyrosine-phosphorylation-regulated kinase 1B (Homo sapiens, UniProt Q9Y463); test: Selectivity interaction (KinomeScan (DiscoverX)) EUB0001550a DYRK1B; conditions: at 1 µM
Dual specificity tyrosine-phosphorylation-regulated kinase 1B, sequence (Q9Y463 whole entry, looked up): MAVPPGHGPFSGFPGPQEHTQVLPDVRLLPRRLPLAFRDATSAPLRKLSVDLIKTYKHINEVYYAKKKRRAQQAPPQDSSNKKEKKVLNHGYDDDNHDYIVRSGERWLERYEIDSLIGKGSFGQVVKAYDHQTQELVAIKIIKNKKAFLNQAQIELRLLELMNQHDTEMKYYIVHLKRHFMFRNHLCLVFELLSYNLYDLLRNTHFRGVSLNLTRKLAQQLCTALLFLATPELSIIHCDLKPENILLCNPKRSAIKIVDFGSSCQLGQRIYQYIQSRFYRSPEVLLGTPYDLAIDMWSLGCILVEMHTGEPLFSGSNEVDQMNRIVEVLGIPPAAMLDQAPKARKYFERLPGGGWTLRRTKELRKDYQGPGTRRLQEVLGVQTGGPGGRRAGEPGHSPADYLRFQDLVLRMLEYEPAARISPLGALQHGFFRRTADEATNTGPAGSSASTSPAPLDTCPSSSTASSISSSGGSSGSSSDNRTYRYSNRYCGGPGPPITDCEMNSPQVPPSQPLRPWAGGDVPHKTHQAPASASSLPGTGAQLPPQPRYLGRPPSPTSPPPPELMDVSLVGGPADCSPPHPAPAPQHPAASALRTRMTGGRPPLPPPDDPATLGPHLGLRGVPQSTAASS

[5] = Selectivity interaction (KinomeScan (DiscoverX)) EUB0000655a CDK2H; conditions: at 10 µM
[6] = target: T2, Phosphatidylinositol 5-phosphate 4-kinase type-2 gamma (Homo sapiens) (UniProt Q8TBX8); test: Selectivity interaction (KinomeScan (DiscoverX)) EUB0001079a PIP4K2C; conditions: at 1 µM
T2 sequence (whole entry): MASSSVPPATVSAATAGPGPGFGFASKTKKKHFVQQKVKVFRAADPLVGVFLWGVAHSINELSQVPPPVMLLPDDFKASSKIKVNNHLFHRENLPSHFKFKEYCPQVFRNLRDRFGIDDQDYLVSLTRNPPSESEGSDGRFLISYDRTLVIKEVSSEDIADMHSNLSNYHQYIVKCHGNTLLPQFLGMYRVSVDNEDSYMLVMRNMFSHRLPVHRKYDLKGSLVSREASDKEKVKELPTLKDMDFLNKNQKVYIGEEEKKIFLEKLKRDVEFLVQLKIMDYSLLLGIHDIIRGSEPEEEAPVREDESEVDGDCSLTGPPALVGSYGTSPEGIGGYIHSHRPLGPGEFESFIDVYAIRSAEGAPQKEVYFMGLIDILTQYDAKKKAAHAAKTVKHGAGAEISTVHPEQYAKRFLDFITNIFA

[7] = target: T3, cGMP-dependent protein kinase 1 (Homo sapiens) (UniProt Q13976); test: Selectivity interaction (KinomeScan (DiscoverX)) EUB0001079a PRKG1; conditions: at 1 µM
T3 sequence (whole entry): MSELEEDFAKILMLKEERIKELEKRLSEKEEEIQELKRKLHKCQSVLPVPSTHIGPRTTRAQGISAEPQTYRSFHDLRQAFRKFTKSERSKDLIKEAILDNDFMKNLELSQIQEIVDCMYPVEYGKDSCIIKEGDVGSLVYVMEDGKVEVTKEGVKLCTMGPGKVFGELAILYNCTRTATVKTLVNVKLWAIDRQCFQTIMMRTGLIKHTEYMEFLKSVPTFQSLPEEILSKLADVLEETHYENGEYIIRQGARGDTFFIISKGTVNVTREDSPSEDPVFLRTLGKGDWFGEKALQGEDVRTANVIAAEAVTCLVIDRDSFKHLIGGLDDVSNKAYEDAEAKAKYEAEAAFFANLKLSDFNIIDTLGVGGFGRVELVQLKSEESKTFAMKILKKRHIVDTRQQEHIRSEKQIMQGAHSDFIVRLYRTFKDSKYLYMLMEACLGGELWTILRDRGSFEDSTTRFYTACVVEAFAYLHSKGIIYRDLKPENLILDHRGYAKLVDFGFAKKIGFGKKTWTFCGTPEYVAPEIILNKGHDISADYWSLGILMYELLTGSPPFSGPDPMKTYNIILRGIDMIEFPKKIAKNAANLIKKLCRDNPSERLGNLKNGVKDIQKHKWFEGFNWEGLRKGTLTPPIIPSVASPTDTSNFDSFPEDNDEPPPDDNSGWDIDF

[8] = target: Cyclin-dependent kinase 5 (Homo sapiens, UniProt Q00535); test: Selectivity interaction (Kinase panel (KiNativ target engagement assay in Jurkat cells)) EUB0001635a CDK5; format: cell-based; conditions: at 1 µM
Cyclin-dependent kinase 5, sequence (Q00535 whole entry, looked up): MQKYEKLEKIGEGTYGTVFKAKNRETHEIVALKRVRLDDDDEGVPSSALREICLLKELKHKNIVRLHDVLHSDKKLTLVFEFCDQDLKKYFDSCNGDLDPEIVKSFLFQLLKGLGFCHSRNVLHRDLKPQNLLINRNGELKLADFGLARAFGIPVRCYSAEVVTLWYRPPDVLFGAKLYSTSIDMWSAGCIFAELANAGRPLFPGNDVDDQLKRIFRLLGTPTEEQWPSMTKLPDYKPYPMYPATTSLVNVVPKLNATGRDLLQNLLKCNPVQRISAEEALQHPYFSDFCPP

[9] = target: Mitotic checkpoint serine/threonine-protein kinase BUB1 (Homo sapiens, UniProt O43683); test: Selectivity interaction (KinomeScan (DiscoverX)) EUB0000666a BUB1; conditions: at 10 µM
[10] = target: Histone-lysine N-methyltransferase SETDB1 (Homo sapiens) (UniProt Q15047); test: Selectivity interaction (PWWP, WD40, and Tudor domain panel (DSLS measurements, literature)) EUB0000270b SETDB1
[11] = target: Tyrosine-protein kinase JAK1 (Homo sapiens, UniProt P23458); test: Selectivity interaction (ActivX KiNativ screen (kinase selectivity in THP-1 cell lysates)) EUB0000639a JAK1; format: subcellular; conditions: lysate
Tyrosine-protein kinase JAK1, sequence (P23458 whole entry): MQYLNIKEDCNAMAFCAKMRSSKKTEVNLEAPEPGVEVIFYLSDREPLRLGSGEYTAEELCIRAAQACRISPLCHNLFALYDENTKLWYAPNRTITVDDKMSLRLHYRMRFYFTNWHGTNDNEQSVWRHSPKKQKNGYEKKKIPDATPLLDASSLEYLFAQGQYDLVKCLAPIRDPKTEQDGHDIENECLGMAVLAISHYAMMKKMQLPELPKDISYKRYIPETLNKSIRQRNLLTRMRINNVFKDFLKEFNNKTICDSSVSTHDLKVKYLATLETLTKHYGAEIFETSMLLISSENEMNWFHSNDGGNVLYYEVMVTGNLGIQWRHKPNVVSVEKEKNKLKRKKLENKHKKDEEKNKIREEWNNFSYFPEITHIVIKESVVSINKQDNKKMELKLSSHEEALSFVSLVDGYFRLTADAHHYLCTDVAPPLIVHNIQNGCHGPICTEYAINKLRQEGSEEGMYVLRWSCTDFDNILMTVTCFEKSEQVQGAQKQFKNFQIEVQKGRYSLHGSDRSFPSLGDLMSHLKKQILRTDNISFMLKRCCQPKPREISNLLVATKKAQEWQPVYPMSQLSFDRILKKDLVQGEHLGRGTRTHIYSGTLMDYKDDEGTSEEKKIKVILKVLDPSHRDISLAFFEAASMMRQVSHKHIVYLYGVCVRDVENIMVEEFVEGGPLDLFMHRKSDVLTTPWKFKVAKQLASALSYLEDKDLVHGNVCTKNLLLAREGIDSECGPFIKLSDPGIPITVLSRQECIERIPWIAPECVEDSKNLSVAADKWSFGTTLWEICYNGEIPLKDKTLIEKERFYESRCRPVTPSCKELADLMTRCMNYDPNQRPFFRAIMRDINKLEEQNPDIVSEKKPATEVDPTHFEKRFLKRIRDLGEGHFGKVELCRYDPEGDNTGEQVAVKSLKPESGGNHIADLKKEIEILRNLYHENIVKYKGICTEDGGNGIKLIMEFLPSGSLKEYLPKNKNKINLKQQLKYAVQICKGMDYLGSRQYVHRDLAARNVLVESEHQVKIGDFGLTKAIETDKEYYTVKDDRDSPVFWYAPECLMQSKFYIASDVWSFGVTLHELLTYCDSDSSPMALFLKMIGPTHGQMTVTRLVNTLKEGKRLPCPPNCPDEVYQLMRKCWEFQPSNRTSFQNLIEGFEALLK

[12] = target: T4, Muscarinic acetylcholine receptor M2 (Homo sapiens) (UniProt P08172); test: Selectivity interaction (Panel of non-epigenetic targets (kinases, GPCRs, ion channels, and transporters, Eurofins) ) EUB0000271b CHRM2; conditions: at 1 µM
T4 sequence (whole entry): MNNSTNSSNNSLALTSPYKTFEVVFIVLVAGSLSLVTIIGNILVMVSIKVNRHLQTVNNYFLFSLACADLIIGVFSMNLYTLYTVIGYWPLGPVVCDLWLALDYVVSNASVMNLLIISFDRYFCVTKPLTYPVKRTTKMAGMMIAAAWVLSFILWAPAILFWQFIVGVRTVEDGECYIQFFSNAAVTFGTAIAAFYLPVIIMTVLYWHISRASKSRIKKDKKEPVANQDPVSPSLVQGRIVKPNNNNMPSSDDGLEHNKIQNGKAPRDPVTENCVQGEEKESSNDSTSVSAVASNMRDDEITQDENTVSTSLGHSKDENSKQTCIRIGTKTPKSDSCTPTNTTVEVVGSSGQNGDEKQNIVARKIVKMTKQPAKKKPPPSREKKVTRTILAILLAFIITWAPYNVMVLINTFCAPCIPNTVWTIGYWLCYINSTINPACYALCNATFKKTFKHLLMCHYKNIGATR

[13] = target: Phosphorylase b kinase gamma catalytic chain, skeletal muscle/heart isoform (Homo sapiens) (UniProt Q16816); test: Selectivity interaction (KinomeScan (DiscoverX)) EUB0000618a PHKG1; conditions: at 10 µM
Phosphorylase b kinase gamma catalytic chain, skeletal muscle/heart isoform (Homo sapiens), sequence (Q16816 whole entry, looked up, canonical isoform): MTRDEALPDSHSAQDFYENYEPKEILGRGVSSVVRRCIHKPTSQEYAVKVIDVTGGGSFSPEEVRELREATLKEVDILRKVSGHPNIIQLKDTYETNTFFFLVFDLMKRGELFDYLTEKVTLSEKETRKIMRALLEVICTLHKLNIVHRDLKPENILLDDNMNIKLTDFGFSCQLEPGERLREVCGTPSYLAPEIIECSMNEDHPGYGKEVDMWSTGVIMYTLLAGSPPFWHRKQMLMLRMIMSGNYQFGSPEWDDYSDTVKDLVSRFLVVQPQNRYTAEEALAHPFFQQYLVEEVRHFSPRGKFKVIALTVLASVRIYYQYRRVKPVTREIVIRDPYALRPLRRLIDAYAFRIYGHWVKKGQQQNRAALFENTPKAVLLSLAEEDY

Insulin-like growth factor 1 receptor, sequence (P08069 31-736 limits assumed): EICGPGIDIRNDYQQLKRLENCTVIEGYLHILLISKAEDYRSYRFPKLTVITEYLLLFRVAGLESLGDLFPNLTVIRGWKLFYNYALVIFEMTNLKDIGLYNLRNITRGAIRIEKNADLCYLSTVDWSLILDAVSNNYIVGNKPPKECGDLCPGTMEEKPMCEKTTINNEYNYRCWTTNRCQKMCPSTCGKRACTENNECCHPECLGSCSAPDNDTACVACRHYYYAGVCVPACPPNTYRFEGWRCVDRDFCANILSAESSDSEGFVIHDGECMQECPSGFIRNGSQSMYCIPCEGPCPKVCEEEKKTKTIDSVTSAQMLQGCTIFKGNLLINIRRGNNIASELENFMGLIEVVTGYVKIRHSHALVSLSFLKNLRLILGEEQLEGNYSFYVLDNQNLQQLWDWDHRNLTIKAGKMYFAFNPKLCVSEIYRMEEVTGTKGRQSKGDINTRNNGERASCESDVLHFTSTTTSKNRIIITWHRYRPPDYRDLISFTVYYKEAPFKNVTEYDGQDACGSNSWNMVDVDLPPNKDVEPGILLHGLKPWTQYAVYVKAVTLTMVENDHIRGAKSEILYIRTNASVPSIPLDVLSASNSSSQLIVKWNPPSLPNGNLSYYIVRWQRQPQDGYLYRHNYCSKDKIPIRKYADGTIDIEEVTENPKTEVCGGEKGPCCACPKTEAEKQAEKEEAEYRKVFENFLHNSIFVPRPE
Insulin-like growth factor 1 receptor, sequence (P08069 741-1367 limits assumed): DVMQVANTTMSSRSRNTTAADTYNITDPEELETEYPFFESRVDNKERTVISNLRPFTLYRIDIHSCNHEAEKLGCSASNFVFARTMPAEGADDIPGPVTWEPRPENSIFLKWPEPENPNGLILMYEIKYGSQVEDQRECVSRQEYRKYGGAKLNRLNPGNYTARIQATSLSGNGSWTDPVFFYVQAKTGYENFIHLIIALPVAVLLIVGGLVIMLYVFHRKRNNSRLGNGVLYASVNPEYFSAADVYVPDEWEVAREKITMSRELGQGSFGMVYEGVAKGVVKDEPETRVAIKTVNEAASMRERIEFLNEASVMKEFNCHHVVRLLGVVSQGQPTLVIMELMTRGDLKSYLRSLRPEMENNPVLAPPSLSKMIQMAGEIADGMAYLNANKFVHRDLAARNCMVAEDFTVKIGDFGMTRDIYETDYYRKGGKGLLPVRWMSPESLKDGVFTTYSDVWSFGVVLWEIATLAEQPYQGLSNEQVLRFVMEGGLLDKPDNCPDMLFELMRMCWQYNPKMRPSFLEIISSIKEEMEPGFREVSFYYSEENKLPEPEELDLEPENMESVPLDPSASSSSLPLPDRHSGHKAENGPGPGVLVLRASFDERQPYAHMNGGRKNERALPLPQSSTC

For CCN(CC)CCCCNc1ncc2cc(-c3cc(OC)cc(OC)c3)c(NC(=O)NC(C)(C)C)nc2n1, the % of control [1] was 100%.
For COc1cc(N(C)c2ccnc3ccc(C(F)(F)F)cc23)cc(OC)c1OC, the % binding [2] was 72%.
CCC(=O)N1CCN(c2ccc(-n3c(=O)ccc4cnc5ccc(-c6cnc7ccccc7c6)cc5c43)cc2C(F)(F)F)CC1 gave a % of control [3] of 100%.
Compound CN(C)CC#Cc1ccc2[nH]c3c(c2c1)-c1nc(N)ncc1CCC3 has a % of control [4] of 26%.
With CN(C)CCOc1ccc(-c2nc(-c3ccncc3)c(-c3ccc4c(c3)CC/C4=N\O)[nH]2)cc1 the % of control [5] was 86%.
With Nc1cnc(N2CCc3cc(S(=O)(=O)Nc4c(F)cc(Cl)cc4F)cc(N4CCCC4=O)c32)nc1 [TP-020n] the % of control [6] was 100% and the % of control [7] was 97%.
C=CC(=O)Nc1ccc(C(=O)Nc2[nH]nc3c2CN(C(=O)N[C@H](CN(C)C)c2ccccc2)C3(C)C)cc1 showed a % of engagement ([8]; Selectivity number of off-targets 0.0, Selectivity number of targets 233.0, Source Knowledge https://www.sciencedirect.com/science/article/pii/S2451945619300674?via%3Dihub) of -1.7% and a % of engagement [8] of 0.4%.
With O=C(NOC[C@H](O)CO)c1ccc(F)c(F)c1Nc1ccc(I)cc1F the % of control [9] was 100%.
Work on Cc1cc(CN)cc(C)c1-c1ncn(C)c1-c1cncn1C yielded a dTagg [10] of 0.9 K.
Compound CC[C@@H]1[C@H](F)C(=O)N[C@@H]1COc1nccc2cc(C(N)=O)c(OC)cc12 [ZIMLOVISERTIB] has a % of inhibition ([11]; at 0.01 µM) of 18%, a % of inhibition ([11]; at 0.04 µM) of 15.6% and a % of inhibition ([11]; at 0.2 µM) of 11.9%. For the same compound, the % of inhibition ([11]; at 1 µM) was 9% and the % of inhibition ([11]; at 5 µM) was -24.4%.
Work on Cc1cc(C)cc([C@@H]2c3cc(C)ccc3NC(=O)CN2C(=O)c2ccc(Br)s2)c1 yielded a % of inhibition [12] of -5%.
For O[C@H]1CC[C@H](Nc2ncc3nc(Nc4c(F)cc(F)cc4F)n([C@H]4CCOC4)c3n2)CC1, the % of control [13] was 100%.
